Experimental data reported in ChEMBL document CHEMBL4419167, “Compositions and methods for treating respiratory injury or disease” (2018).
Calls of active or inactive are those of the source. The rule behind the calls is not given here.

System: Mus musculus
Assay: Suppression of lung injury in mouse model of influenza A virus H1N1 infection-induced lung injury assessed as decrease in lung resistance at 30 ug/ml dosed via drinking water
Assay type: functional, organism-based

c1ccc(-c2ccc(CNCCNCc3ccc(-c4ccccn4)cc3)cc2)nc1
Activity: Active
